The substances below were run on DMPK (assay: DMPK knockdown by transfected antisense oligonucleotides in DM1 C15 myotubes at 0.5 nM and 50 nM). Details: 0.5 nM oligonucleotide, 72 hours, qPCR, relative to vehicle control.
Format: cell-based
Experimental: Two hundred and thirty-six oligonucleotides for targeting DMPK were generated using in silico analysis. Each individual oligonucleotide was evaluated for their ability to target DMPK in cellulo at two doses—0.5 nM (low dose) and 50 nM (high dose).
Briefly, DM1 C15 immortalized myoblasts were cultured in T-75 flasks until near confluency (˜80% confluent). Myoblasts were then disrupted with trypsin and seeded into 96-well microplates at a density of 50,000 cells/well. Cells were allowed to recover overnight before the growth media was washed out and replaced with a no-serum media to induce differentiation into myotubes. Differentiation proceeded for seven days prior to treatment with DMPK-targeting oligonucleotides.
On day seven following induction of differentiation, DM1 C15 myotubes were transfected with an individual oligonucleotide using 0.3 μL of Lipofectamine MessengerMax per well. All oligonucleotides were tested at both 0.5 nM and 50 nM final concentrations in biological triplicates. After treatment with oligonucleotides, cells were incubated for 72 hours prior to being harvested for total RNA. cDNA was synthesized from the total RNA extracts and qPCR was performed to determine expression levels of DMPK in technical quadruplicate. All qPCR data were analyzed using a traditional […] method and were normalized to a plate-based negative control that comprised cells treated with vehicle control (0.3 μL/well Lipofectamine MessengerMax without any oligonucleotide). Results from these experiments are shown in Table 10. ‘Normalized DMPK Remaining’ for each antisense oligonucleotide in Table 10 refers to the expression level of DMPK in cell treated with said antisense oligonucleotide relative to the negative control that comprised cells treated with vehicle control (wherein the expression level of the negative control has been normalized to equal 1.00)

Row | Substance | Percent DMPK Reduction [%]
1 | 281 (ACAGCGGUCCAGCAGGAUGU; chemistry not given here) [compound 281] | 19.94
2 | 282 (AAAGCGCCUCCGAUAGGCCA; chemistry not given here) [compound 282] | 19.89
3 | 283 (GCCAAAGAAGAAGGGAUGUG; chemistry not given here) [compound 283] | 24.87
4 | 284 (CACGUAAUACUCCAUGACCA; chemistry not given here) [compound 284] | 24.40
5 | 285 (AUCUCGGCCGGAAUCCGCUC; chemistry not given here) [compound 285] | 11.61
6 | 287 (GCCAUCUCGGCCGGAAUCCG; chemistry not given here) [compound 287] | 18.56
7 | 289 (AUGACAAUCUCCGCCAGGUA; chemistry not given here) [compound 289] | 42.38
8 | 290 (GGCCAUGACAAUCUCCGCCA; chemistry not given here) [compound 290] | 42.38
9 | 291 (AUACUCCAUGACCAGGUACA; chemistry not given here) [compound 291] | 23.07
10 | 292 (GCCUCUGCCUCGCGUAGUUG; chemistry not given here) [compound 292] | 35.38
11 | 295 (CCUUGUAGUGGACGAUCUUG; chemistry not given here) [compound 295] | 17.20
12 | 296 (AUCUCCGCCAGGUAGAAGCG; chemistry not given here) [compound 296] | 42.37
13 | 297 (CUCAGGCUCUGCCGGGUGAG; chemistry not given here) [compound 297] | 30.13
14 | 298 (UGCUUCAUCUUCACUACCGC; chemistry not given here) [compound 298] | 28.82
15 | 300 (GGCCUCAGCCUCUGCCGCAG; chemistry not given here) [compound 300] | 20.12
16 | 302 (CCACGUAAUACUCCAUGACC; chemistry not given here) [compound 302] | 20.84
17 | 303 (CCGUUCCAUCUGCCCGCAGC; chemistry not given here) [compound 303] | 31.74
18 | 304 (UUCCCGAGUAAGCAGGCAGA; chemistry not given here) [compound 304] | 31.49

Same assay, conditions: 0.5 nM oligonucleotide, 72 hours, qPCR, relative to vehicle control = 1.00

Row | Substance | Normalized DMPK Remaining
19 | 281 (ACAGCGGUCCAGCAGGAUGU; chemistry not given here) [compound 281] | 0.80
20 | 282 (AAAGCGCCUCCGAUAGGCCA; chemistry not given here) [compound 282] | 0.80
21 | 283 (GCCAAAGAAGAAGGGAUGUG; chemistry not given here) [compound 283] | 0.75
22 | 284 (CACGUAAUACUCCAUGACCA; chemistry not given here) [compound 284] | 0.76
23 | 285 (AUCUCGGCCGGAAUCCGCUC; chemistry not given here) [compound 285] | 0.88
24 | 287 (GCCAUCUCGGCCGGAAUCCG; chemistry not given here) [compound 287] | 0.81
25 | 289 (AUGACAAUCUCCGCCAGGUA; chemistry not given here) [compound 289] | 0.58
26 | 290 (GGCCAUGACAAUCUCCGCCA; chemistry not given here) [compound 290] | 0.58
27 | 291 (AUACUCCAUGACCAGGUACA; chemistry not given here) [compound 291] | 0.77
28 | 292 (GCCUCUGCCUCGCGUAGUUG; chemistry not given here) [compound 292] | 0.65
29 | 295 (CCUUGUAGUGGACGAUCUUG; chemistry not given here) [compound 295] | 0.83
30 | 296 (AUCUCCGCCAGGUAGAAGCG; chemistry not given here) [compound 296] | 0.58
31 | 297 (CUCAGGCUCUGCCGGGUGAG; chemistry not given here) [compound 297] | 0.70
32 | 298 (UGCUUCAUCUUCACUACCGC; chemistry not given here) [compound 298] | 0.71
33 | 300 (GGCCUCAGCCUCUGCCGCAG; chemistry not given here) [compound 300] | 0.80
34 | 302 (CCACGUAAUACUCCAUGACC; chemistry not given here) [compound 302] | 0.79
35 | 303 (CCGUUCCAUCUGCCCGCAGC; chemistry not given here) [compound 303] | 0.68
36 | 304 (UUCCCGAGUAAGCAGGCAGA; chemistry not given here) [compound 304] | 0.69

Same assay, conditions: 50 nM oligonucleotide, 72 hours, qPCR, relative to vehicle control

Row | Substance | Percent DMPK Reduction [%]
37 | 281 (ACAGCGGUCCAGCAGGAUGU; chemistry not given here) [compound 281] | 55.14
38 | 282 (AAAGCGCCUCCGAUAGGCCA; chemistry not given here) [compound 282] | 62.04
39 | 283 (GCCAAAGAAGAAGGGAUGUG; chemistry not given here) [compound 283] | 56.19
40 | 284 (CACGUAAUACUCCAUGACCA; chemistry not given here) [compound 284] | 46.50
41 | 285 (AUCUCGGCCGGAAUCCGCUC; chemistry not given here) [compound 285] | 65.98
42 | 287 (GCCAUCUCGGCCGGAAUCCG; chemistry not given here) [compound 287] | 86.39
43 | 289 (AUGACAAUCUCCGCCAGGUA; chemistry not given here) [compound 289] | 60.47
44 | 290 (GGCCAUGACAAUCUCCGCCA; chemistry not given here) [compound 290] | 75.00
45 | 291 (AUACUCCAUGACCAGGUACA; chemistry not given here) [compound 291] | 56.84
46 | 292 (GCCUCUGCCUCGCGUAGUUG; chemistry not given here) [compound 292] | 81.18
47 | 295 (CCUUGUAGUGGACGAUCUUG; chemistry not given here) [compound 295] | 65.91
48 | 296 (AUCUCCGCCAGGUAGAAGCG; chemistry not given here) [compound 296] | 65.50
49 | 297 (CUCAGGCUCUGCCGGGUGAG; chemistry not given here) [compound 297] | 63.07
50 | 298 (UGCUUCAUCUUCACUACCGC; chemistry not given here) [compound 298] | 60.24
51 | 300 (GGCCUCAGCCUCUGCCGCAG; chemistry not given here) [compound 300] | 71.28
52 | 302 (CCACGUAAUACUCCAUGACC; chemistry not given here) [compound 302] | 50.06
53 | 303 (CCGUUCCAUCUGCCCGCAGC; chemistry not given here) [compound 303] | 77.46
54 | 304 (UUCCCGAGUAAGCAGGCAGA; chemistry not given here) [compound 304] | 49.81

Same assay, conditions: 50 nM oligonucleotide, 72 hours, qPCR, relative to vehicle control = 1.00

Row | Substance | Normalized DMPK Remaining
55 | 281 (ACAGCGGUCCAGCAGGAUGU; chemistry not given here) [compound 281] | 0.45
56 | 282 (AAAGCGCCUCCGAUAGGCCA; chemistry not given here) [compound 282] | 0.38
57 | 283 (GCCAAAGAAGAAGGGAUGUG; chemistry not given here) [compound 283] | 0.44
58 | 284 (CACGUAAUACUCCAUGACCA; chemistry not given here) [compound 284] | 0.54
59 | 285 (AUCUCGGCCGGAAUCCGCUC; chemistry not given here) [compound 285] | 0.34
60 | 287 (GCCAUCUCGGCCGGAAUCCG; chemistry not given here) [compound 287] | 0.14
61 | 289 (AUGACAAUCUCCGCCAGGUA; chemistry not given here) [compound 289] | 0.40
62 | 290 (GGCCAUGACAAUCUCCGCCA; chemistry not given here) [compound 290] | 0.25
63 | 291 (AUACUCCAUGACCAGGUACA; chemistry not given here) [compound 291] | 0.43
64 | 292 (GCCUCUGCCUCGCGUAGUUG; chemistry not given here) [compound 292] | 0.19
65 | 295 (CCUUGUAGUGGACGAUCUUG; chemistry not given here) [compound 295] | 0.34
66 | 296 (AUCUCCGCCAGGUAGAAGCG; chemistry not given here) [compound 296] | 0.35
67 | 297 (CUCAGGCUCUGCCGGGUGAG; chemistry not given here) [compound 297] | 0.37
68 | 298 (UGCUUCAUCUUCACUACCGC; chemistry not given here) [compound 298] | 0.40
69 | 300 (GGCCUCAGCCUCUGCCGCAG; chemistry not given here) [compound 300] | 0.29
70 | 302 (CCACGUAAUACUCCAUGACC; chemistry not given here) [compound 302] | 0.50
71 | 303 (CCGUUCCAUCUGCCCGCAGC; chemistry not given here) [compound 303] | 0.23
72 | 304 (UUCCCGAGUAAGCAGGCAGA; chemistry not given here) [compound 304] | 0.50

From patent US20230144436A1, “MUSCLE TARGETING COMPLEXES AND USES THEREOF FOR TREATING MYOTONIC DYSTROPHY” (Dyne Therapeutics, Inc., priority 2020, published 2023)
